For assay [1], the target named is T1, M-phase inducer phosphatase 1 (Homo sapiens, UniProt P30304).
T1 sequence (P30304 whole entry): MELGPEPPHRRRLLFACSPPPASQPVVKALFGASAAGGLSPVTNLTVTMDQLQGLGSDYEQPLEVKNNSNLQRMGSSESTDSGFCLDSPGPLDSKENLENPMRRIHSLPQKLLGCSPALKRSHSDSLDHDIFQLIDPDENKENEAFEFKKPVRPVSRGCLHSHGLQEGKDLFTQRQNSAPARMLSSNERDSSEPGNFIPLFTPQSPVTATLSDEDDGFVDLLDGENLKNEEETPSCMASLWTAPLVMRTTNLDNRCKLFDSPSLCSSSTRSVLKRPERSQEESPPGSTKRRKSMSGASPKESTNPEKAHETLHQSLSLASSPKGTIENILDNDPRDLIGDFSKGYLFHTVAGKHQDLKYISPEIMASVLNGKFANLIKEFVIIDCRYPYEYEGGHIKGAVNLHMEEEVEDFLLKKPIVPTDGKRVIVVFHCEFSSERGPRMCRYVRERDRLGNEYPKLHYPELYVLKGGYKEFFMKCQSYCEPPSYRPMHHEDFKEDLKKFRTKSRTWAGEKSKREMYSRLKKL
The assay can be described thus: Concentration required to inhibit human Cell division cycle 25A activity; Value ranges from […] to […].

Assay [2] concerns the target T2, M-phase inducer phosphatase 2 (Homo sapiens, UniProt P30305).
T2 sequence (P30305 whole entry): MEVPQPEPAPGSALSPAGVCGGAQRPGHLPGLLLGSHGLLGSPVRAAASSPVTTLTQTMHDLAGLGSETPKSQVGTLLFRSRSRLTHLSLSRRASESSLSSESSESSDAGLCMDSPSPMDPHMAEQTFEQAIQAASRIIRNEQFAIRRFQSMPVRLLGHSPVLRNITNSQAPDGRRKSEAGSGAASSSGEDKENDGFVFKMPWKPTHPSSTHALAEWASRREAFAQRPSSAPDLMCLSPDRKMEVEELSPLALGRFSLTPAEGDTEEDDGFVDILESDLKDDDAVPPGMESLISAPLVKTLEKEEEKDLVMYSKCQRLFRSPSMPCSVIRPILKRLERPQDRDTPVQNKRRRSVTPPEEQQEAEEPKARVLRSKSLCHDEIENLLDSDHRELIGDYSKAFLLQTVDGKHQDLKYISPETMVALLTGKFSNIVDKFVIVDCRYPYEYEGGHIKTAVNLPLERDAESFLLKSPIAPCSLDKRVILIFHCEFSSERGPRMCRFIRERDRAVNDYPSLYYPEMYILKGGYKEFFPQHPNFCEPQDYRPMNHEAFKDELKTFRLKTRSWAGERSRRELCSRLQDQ
The assay can be described thus: Concentration required to inhibit human Cell division cycle 25B activity.

In assay [3] the target is T1, M-phase inducer phosphatase 1. The assay can be described thus: Concentration required to inhibit human Cell division cycle 25A activity.

The values that follow come from ChEMBL document CHEMBL1146660 (Bioorg Med Chem Lett, 2004).

As a reminder, the IC50 is the concentration at which inhibition is half-maximal. A high value points to a need for much substance.

`C=C1CC[C@H](O)C/C1=C/C=C1\CCC[C@@]2(C)C1CC[C@@H]2[C@H](C)CCCC(C)C` (stereo partly drawn) had an IC50 in assay [1] of 0.89 µM.
As for `CC(C)CCC[C@@H](C)[C@H]1CCC2/C(=C/C(=O)O)CCC[C@@]21C` (stereo partly drawn), the values for the IC50 in assay [2] and in assay [3] were 8 µM and 5.5 µM, respectively.
